melting point [°C] | SMILES
153 to 154 | CCOC(=O)c1c(CCl)nc2cc(OC)c(OC)cc2c1-c1ccc(Cl)cc1
190 to 191 | O=C(O)CC1(c2ccc(Cl)cc2)CNC(=O)C1 (stereo not given)
195 to 196 | CCOC(=O)C(=O)Nc1c([N+](=O)[O-])sc2cc(OC)ccc12
70 to 71 | Nc1ccc(OCCCCCCCCCCOc2ccc(N)cc2)cc1
319 to 320 | CC1Oc2c(cc(Cl)cc2C(=O)O)NC1=O (stereo not given)
115 to 119 | O=CNCc1cccc(-c2ccc(Br)cc2)n1
124 to 128 | Cc1cc(C(=O)O)cc(C)c1OCCNC(=O)C1Cc2ccccc2N1S(=O)(=O)c1ccc(-c2ccc(F)cc2)cc1 (stereo not given)
210 to 211 | CN(C)c1nc(N)c(-c2nc(N)no2)nc1Cl
117 to 118 | N=C(Nc1cccc([N+](=O)[O-])c1)N1CCCC1
76 to 77 | CC(=O)c1nc2cc(Cl)ccc2cc1OCc1ccccc1
66 to 67 | C=CCOc1cc(C=O)ccc1O
60 | COC(=O)Cc1ccc(OCCNC(=O)C2Cc3ccccc3N2S(=O)(=O)c2ccc(-c3ccc(F)cc3)c(C(F)(F)F)c2)cc1 (stereo not given)
198 to 200 | CCOC(=O)c1csc(Nc2ccc(C)cn2)n1
198 to 200 | Cn1c([N+](=O)[O-])cnc1-c1nnc2ccc(N=CNC3CCCCC3)nn12
220 to 221 | CN(c1cc2ccccc2s1)c1nc(=O)c2cccnc2s1
289 to 290 | O=C1OC(=O)c2c3ccccc3cc3cccc1c23
180 to 182 | O=C(Nc1cccc(S(=O)(=O)N2CCCC2CO)c1)c1cnn2c(C3CC3)cc(-c3ccc(Cl)cc3)nc12 (stereo not given)
136 to 138 | CN1C(=O)CCC(C)(C)c2cc(Nc3ncc(Cl)c(Nc4ccccc4-n4cccn4)n3)ccc21
101 to 102 | CC1(C(=O)N2C[C@@H]3C[C@H]2C(=O)O3)CC1
87 to 88 | CC(C)(C)OC(=O)NCCSc1cc(-c2ccccc2)on1

melting point [°C] | SMILES
268 to 269 | CC1NC(=O)NN=C1c1ccc(C#N)cc1 (stereo not given)
135 to 137 | COc1cc(OC)nc(-n2c(SC)nc3ccccc32)n1
275 to 285 | N#CC(C#N)=C1C=C(c2ccsc2)S(=O)(=O)C(c2ccsc2)=C1
182 to 184 | O=C(O)COc1cccc2c1OCc1sc(SCC(c3ccccc3)c3ccccc3)nc1-2
161 to 163 | O=C(O)c1ccc(NCCc2cccs2)cc1
51 to 54 | Cc1cccc(OC(=O)c2ccccc2)c1
115 to 116 | C=COCCONC(=O)c1cc(F)c(F)c(F)c1Nc1ccc(I)cc1Cl
122 to 125 | COC(=O)C(=C(C)C)N1C(=O)[C@H](N2C(=O)c3ccccc3C2=O)[C@H]1Cl
310 to 320 | O=C(O)c1cc(Oc2ccc(Br)cc2)cc(C(=O)O)c1
123 | CCC(CC(O)C(CC1CCCCC1)NC(=O)C(Cc1c[nH]cn1)NC(=O)C(Cc1ccccc1)C(=O)NO)C(C)C (stereo not given)
184 to 186 | CC(=O)Oc1ccc(CN/C=C2\C(=O)NC(=O)c3ccccc32)cc1OC(C)=O
279 | O=C(Nc1nnn[nH]1)c1cc2c(cc1[N+](=O)[O-])OCO2
125 | CCC(=O)OC(C)c1ccc(-c2ccc(OCc3ccccc3)cc2)cc1 (single isomer, unassigned; (+))
192 | CCCCCCCCCCCCCCCCCC(=O)Nc1ccc(NC(=O)NS(=O)(=O)c2ccc3ccccc3c2)cc1
147 to 148 | O=C(Nc1ccc(OCCN2CCOCC2)c2ccccc12)c1cccc(N2CCCCC2)c1
176 | CC(=O)C(CCC(=O)O)(CCC(=O)O)C(C)=O
211 to 213 | CCn1c(=O)c(C#N)c(N2CCCC2)c2ccc(C)nc21
95 to 96 | Nc1c(Cl)cc(C(O)CNCCCCCCOCCCCc2ncccc2O)cc1Cl (stereo not given)
88 to 89 | CCCCCCCCCC1(C)NC(=S)NC1=S (stereo not given)

SMILES | melting point [°C]
CCC1CC2C3CCC4=CC(=O)CCC4=C3CCC2(C)C1O (stereo not given) | 124 to 126
